The assay deals with AldO (Streptomyces coelicolor, UniProt Q9ZBU1). In words: HRP-coupled H2O2 assay, thermostability and temperature optimum. The note with it: 10 mM xylitol; 50 mM potassium phosphate pH 7.5. In kind it is biochemical.
Sequence of AldO (Q9ZBU1 whole entry): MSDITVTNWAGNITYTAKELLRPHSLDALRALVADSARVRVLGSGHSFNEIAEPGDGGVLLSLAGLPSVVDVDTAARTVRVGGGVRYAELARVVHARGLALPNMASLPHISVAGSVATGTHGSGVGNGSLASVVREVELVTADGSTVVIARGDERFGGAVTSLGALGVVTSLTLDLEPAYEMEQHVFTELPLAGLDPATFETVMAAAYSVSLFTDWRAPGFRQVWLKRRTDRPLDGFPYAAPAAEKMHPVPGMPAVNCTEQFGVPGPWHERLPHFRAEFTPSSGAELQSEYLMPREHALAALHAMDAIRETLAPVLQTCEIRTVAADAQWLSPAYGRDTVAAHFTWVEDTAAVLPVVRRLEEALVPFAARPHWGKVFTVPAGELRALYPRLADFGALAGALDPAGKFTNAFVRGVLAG

For `OC[C@@H](O)[C@H](O)[C@@H](O)CO` [xylitol], the “HRP-coupled H2O2 assay, thermostability and temperature optimum” value was “Oxidase activity with xylitol as substrate was measured after enzyme solutions had been incubated”.

The values above are taken from PMC3371188 (Applied Microbiology and Biotechnology, 2012).
